23 compounds from ChEMBL document CHEMBL1144330, “Novel pyrazinone mono-amides as potent and reversible caspase-3 inhibitors” (Bioorg Med Chem Lett, 2005) can be followed below.

One experiment has as its system NT2. The experiment in a line: Inhibitory concentration against camptothecin induced apoptosis in neuronal precursor (NT2) whole cells. To be noted: Homo sapiens. It counts as functional, cell-based.
A further experiment deals with T1, Caspase-3 (Homo sapiens, UniProt P42574).
T1 sequence (P42574 whole entry): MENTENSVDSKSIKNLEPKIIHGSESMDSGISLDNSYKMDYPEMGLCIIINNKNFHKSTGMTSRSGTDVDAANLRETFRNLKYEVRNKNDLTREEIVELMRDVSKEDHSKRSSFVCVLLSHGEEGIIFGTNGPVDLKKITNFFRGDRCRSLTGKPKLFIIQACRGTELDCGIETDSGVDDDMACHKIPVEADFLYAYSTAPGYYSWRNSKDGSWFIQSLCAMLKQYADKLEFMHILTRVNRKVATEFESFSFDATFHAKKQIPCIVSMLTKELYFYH
The experiment in a line: Inhibitory concentration against recombinant human caspase-3 in neuronal precursor (NT2) cells.

A further experiment concerns the target T2, Caspase-1 (Homo sapiens, UniProt P29466).
T2 sequence (P29466 whole entry): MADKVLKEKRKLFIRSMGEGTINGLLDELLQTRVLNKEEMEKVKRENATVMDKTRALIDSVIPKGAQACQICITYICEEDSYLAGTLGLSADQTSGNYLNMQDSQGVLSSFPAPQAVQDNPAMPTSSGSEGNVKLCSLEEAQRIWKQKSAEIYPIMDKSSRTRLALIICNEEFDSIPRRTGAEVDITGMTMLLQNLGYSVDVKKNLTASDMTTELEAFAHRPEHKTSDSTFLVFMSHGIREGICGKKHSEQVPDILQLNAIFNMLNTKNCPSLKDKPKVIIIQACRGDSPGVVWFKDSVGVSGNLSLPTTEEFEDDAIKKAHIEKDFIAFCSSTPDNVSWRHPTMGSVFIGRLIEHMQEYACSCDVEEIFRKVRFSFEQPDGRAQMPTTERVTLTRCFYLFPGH
The experiment in a line: Inhibitory concentration against recombinant human caspase-1 in neuronal precursor (NT2) cells.

The target of the next experiment is Caspase-8 (Homo sapiens, UniProt Q14790). Kind of experiment: Inhibitory concentration against recombinant human caspase-8 […].
Another experiment deals with T3, Caspase-7 (Homo sapiens, UniProt P55210).
T3 sequence (P55210 whole entry): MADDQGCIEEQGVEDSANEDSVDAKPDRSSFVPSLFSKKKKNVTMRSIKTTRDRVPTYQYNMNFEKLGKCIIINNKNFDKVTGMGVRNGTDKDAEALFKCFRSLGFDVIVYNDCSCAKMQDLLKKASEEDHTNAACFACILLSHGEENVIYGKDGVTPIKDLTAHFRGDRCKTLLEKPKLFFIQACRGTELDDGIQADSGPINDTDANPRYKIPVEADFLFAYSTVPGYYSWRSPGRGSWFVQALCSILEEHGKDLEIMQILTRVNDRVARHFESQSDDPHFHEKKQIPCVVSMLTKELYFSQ
The experiment in a line: Inhibitory concentration against recombinant human caspase-7 […].

Some results are limits rather than exact numbers.

Caspase-8, sequence (Q14790 217-374 limits assumed): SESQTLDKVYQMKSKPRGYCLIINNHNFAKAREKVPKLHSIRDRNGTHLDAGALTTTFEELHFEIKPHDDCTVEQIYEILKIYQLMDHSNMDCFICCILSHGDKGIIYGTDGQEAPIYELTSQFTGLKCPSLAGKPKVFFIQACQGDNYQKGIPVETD
Caspase-8, sequence (Q14790 385-479 limits assumed): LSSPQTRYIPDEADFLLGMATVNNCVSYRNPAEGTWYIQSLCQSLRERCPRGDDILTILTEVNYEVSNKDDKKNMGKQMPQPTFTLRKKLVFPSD

As for `CCC(C(=O)N[C@@H](CC(=O)O)C(=O)CSCc1ccccc1)n1ccnc(NCc2noc(C)n2)c1=O` (stereo not given in full), the IC50 (usually the concentration at which inhibition is half-maximal) in the experiment on NT2 was 8.06 µM; on Caspase-3, 72 nM; at Caspase-1, 1080 nM; on Caspase-8, 7.56 µM; at Caspase-7, over 10000 nM.

In the case of `CCCCCCCCN(C)CNCC(=O)[C@H](CC(=O)O)NC(=O)C(CC)n1ccnc(NCc2nonc2C)c1=O` (stereo not given in full), the IC50 was 0.15 µM in the experiment on NT2; 9 nM on Caspase-3; 25 nM at Caspase-1; over 10 µM at Caspase-8; 100 nM at Caspase-7.

`CCCCN(C)CNCC(=O)[C@H](CC(=O)O)NC(=O)C(CC)n1ccnc(NCc2nonc2C)c1=O` (stereo not given in full): the IC50 was 0.3 µM in the experiment with NT2; 15 nM at Caspase-3; 31 nM at Caspase-1; over 10 µM on Caspase-8; 130 nM on Caspase-7.

As for `CCC(C(=O)N[C@@H](CC(=O)O)C(=O)CSCc1ccccc1)n1ccnc(NCc2cncs2)c1=O` (stereo not given in full), the IC50 in the experiment on NT2 was 3.42 µM; at Caspase-3, 12 nM; at Caspase-1, 190 nM; on Caspase-8, 6.59 µM; at Caspase-7 it was 490 nM.

With `CCC(C(=O)N[C@@H](CC(=O)O)C(=O)CSCc1ccccc1)n1ccnc(NCc2cc(C)no2)c1=O` (stereo not given in full), the IC50 with NT2 was 6.41 µM; on Caspase-3, 51 nM; at Caspase-1 it was 230 nM; at Caspase-8 it was 3.3 µM; at Caspase-7, 2540 nM.

For the compound `CCCCCN(C)CNCC(=O)[C@H](CC(=O)O)NC(=O)C(CC)n1ccnc(NCc2nonc2C)c1=O` (stereo not given in full), the IC50 was 0.3 µM with NT2; 13 nM at Caspase-3; 48 nM on Caspase-1; over 10 µM at Caspase-8; 110 nM at Caspase-7.

For the compound `CCC(C(=O)N[C@@H](CC(=O)O)C(=O)CSCc1ccccc1)n1ccnc(NCc2nccs2)c1=O` (stereo not given in full), the IC50 in the experiment on NT2 turned out to be 3.08 µM; on Caspase-3 it was 26 nM; on Caspase-1, 130 nM; on Caspase-8 it was 1.75 µM; on Caspase-7, 1130 nM.

Take `CCC(C(=O)N[C@@H](CC(=O)O)C(=O)CSCc1ccccc1)n1ccnc(Nc2ccc3sc(C)nc3c2)c1=O` (stereo not given in full): the 50% inhibitory concentration (IC50) in the experiment with NT2 came to 37.9 µM; at Caspase-3, 88 nM; on Caspase-1 it was 220 nM; at Caspase-8, 2.73 µM; at Caspase-7, 2420 nM.

For `CCC(C(=O)N[C@@H](CC(=O)O)C(=O)CSCc1ccccc1)n1ccnc(NCCn2cncn2)c1=O` (stereo not given in full), the IC50 with NT2 was 5.74 µM; on Caspase-3, 18 nM; on Caspase-1, 1930 nM; on Caspase-8, over 10 µM; on Caspase-7 it was 9710 nM.

With `CCC(C(=O)N[C@@H](CC(=O)O)C(=O)CSCc1ccccc1)n1ccnc(NCCCN2CCCC2=O)c1=O` (stereo not given in full), the IC50 was 50 µM with NT2; 190 nM at Caspase-3; 1900 nM at Caspase-1; 9.92 µM on Caspase-8; over 10000 nM on Caspase-7.

For the compound `CCC(C(=O)N[C@@H](CC(=O)O)C(=O)CSCc1ccccc1)n1ccnc(NCc2nnc(-c3ccccc3)o2)c1=O` (stereo not given in full), the IC50 with NT2 is 52.1 µM; on Caspase-3, 310 nM; at Caspase-1, 980 nM; at Caspase-8, 4.92 µM; at Caspase-7, over 10000 nM.

As for `CCC(C(=O)N[C@@H](CC(=O)O)C(=O)CSCc1ccccc1)n1ccnc(NCCOC)c1=O` (stereo not given in full), the IC50 with NT2 is 6.79 µM; at Caspase-3, 140 nM; at Caspase-1, 1110 nM; at Caspase-8 it was over 10 µM; at Caspase-7, over 10000 nM.

For the compound `CCCCCCN(C)CNCC(=O)[C@H](CC(=O)O)NC(=O)C(CC)n1ccnc(NCc2nonc2C)c1=O` (stereo not given in full), the IC50 is 0.13 µM in the experiment on NT2; 11 nM on Caspase-3; 28 nM at Caspase-1; over 10 µM on Caspase-8; 140 nM on Caspase-7.

With `CCC(C(=O)N[C@@H](CC(=O)O)C(=O)CSCc1ccccc1)n1ccnc(NCCCOC)c1=O` (stereo not given in full), the IC50 with NT2 was over 10 µM; at Caspase-3, 71 nM; at Caspase-1, 920 nM; at Caspase-8 it was 7.65 µM; at Caspase-7 it was 9730 nM.

For the compound `CCC(C(=O)N[C@@H](CC(=O)O)C(=O)CSCc1ccccc1)n1ccnc(NCCn2nc(C)cc2C)c1=O` (stereo not given in full), the IC50 is 9.48 µM in the experiment on NT2; 160 nM on Caspase-3; 1820 nM at Caspase-1; 1.66 µM on Caspase-8; over 10000 nM at Caspase-7.

`CCC(C(=O)N[C@H](C=O)CC(=O)O)n1ccnc(NCc2nonc2C)c1=O` (stereo not given in full): the IC50 stood at 3.56 µM with NT2; 78 nM on Caspase-3; 150 nM at Caspase-1; 0.99 µM at Caspase-8; 1000 nM at Caspase-7.

`CCC(C(=O)N[C@@H](CC(=O)O)C(=O)CSCc1ccccc1)n1ccnc(NCc2nc(C)no2)c1=O` (stereo not given in full): the IC50 turned out to be 5.33 µM in the experiment on NT2; 48 nM at Caspase-3; 670 nM at Caspase-1; 6.42 µM on Caspase-8; 4680 nM on Caspase-7.

For the compound `CCC(C(=O)N[C@@H](CC(=O)O)C(=O)CSCc1ccccc1)n1ccnc(NCc2cccs2)c1=O` (stereo not given in full), the IC50 in the experiment with NT2 was determined as 4.56 µM; at Caspase-3 it was 36 nM; at Caspase-1, 65 nM; on Caspase-8, 2.09 µM; at Caspase-7 it was 810 nM.

On to `CCC(C(=O)N[C@@H](CC(=O)O)C(=O)CSCc1ccccc1)n1ccnc(NCc2ccon2)c1=O` (stereo not given in full), for which the IC50 worked out at 8.56 µM in the experiment on NT2; 46 nM at Caspase-3; 400 nM at Caspase-1; 2.9 µM on Caspase-8; 5170 nM at Caspase-7.

As to `CCC(C(=O)N[C@@H](CC(=O)O)C(=O)CSCc1ccccc1)n1ccnc(NCC2COc3ccccc3O2)c1=O` (stereo not given in full), the IC50 in the experiment on NT2 came out at 30 µM; at Caspase-3, 140 nM; at Caspase-1 it was 87 nM; at Caspase-8, 8.22 µM; at Caspase-7, 3280 nM.

`CCCCCCN(C)CNCC(=O)[C@H](CC(=O)O)NC(=O)C(CC)n1cc(CC)nc(NCc2nonc2C)c1=O` (stereo not given in full): the IC50 in the experiment with NT2 is 0.078 µM; at Caspase-3, 6 nM; at Caspase-1 it was 25 nM; on Caspase-8, 9.54 µM; on Caspase-7 it was 600 nM.

Regarding `CCC(C(=O)N[C@@H](CC(=O)O)C(=O)CSCc1ccccc1)n1ccnc(NCc2nonc2C)c1=O` (stereo not given in full), the IC50 in the experiment on NT2 stood at 1.39 µM; at Caspase-3, 7.9 nM; on Caspase-1 it was 220 nM; at Caspase-8, 2.46 µM; on Caspase-7 it was 730 nM.

`CCC(C(=O)N[C@@H](CC(=O)O)C(=O)CSCc1ccccc1)n1ccnc(NCCn2cccn2)c1=O` (stereo not given in full): the IC50 was 7.09 µM in the experiment with NT2; 82 nM on Caspase-3; 990 nM on Caspase-1; 2.26 µM at Caspase-8; over 10000 nM on Caspase-7.
